Reference: ChEMBL document CHEMBL1131394, “Design and synthesis of N-alkylated saccharins as selective alpha-1a adrenergic receptor antagonists” (Bioorg Med Chem Lett, 1998)

Assays:
[1] = molecular target: T1, Alpha-1B adrenergic receptor (Homo sapiens, UniProt P35368); test: Ability to displace beta ([125I]-iodo-4-hydroxyphenyl)-ethylamino methyl tetralone from human cloned Alpha-1b adrenergic receptor stably expressed in LM cells.; type: cell-based
T1 sequence (P35368 whole entry): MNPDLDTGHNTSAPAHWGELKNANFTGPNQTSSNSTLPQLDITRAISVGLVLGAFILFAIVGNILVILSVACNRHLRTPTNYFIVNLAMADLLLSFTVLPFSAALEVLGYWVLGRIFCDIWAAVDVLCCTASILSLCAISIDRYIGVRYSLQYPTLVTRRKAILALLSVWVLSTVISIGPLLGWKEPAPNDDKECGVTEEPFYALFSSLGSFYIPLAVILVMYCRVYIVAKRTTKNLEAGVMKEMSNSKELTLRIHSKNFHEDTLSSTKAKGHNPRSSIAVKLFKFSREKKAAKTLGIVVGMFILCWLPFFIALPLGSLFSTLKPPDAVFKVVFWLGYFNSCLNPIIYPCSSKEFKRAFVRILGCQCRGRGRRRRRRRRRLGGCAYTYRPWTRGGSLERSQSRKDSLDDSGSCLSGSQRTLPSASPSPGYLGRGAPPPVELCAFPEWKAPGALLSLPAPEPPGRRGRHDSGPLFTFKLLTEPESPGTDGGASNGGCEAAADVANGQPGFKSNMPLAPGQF

[2] = molecular target: T2, Alpha-1A adrenergic receptor (Homo sapiens, UniProt P35348); test: Ability to displace beta ([125I]-iodo-4-hydroxyphenyl)-ethylamino methyl tetralone from human cloned Alpha-1a adrenergic receptor stably expressed in Chinese Hamster Ovary (CHO) cells; type: cell-based
T2 sequence (P35348 whole entry): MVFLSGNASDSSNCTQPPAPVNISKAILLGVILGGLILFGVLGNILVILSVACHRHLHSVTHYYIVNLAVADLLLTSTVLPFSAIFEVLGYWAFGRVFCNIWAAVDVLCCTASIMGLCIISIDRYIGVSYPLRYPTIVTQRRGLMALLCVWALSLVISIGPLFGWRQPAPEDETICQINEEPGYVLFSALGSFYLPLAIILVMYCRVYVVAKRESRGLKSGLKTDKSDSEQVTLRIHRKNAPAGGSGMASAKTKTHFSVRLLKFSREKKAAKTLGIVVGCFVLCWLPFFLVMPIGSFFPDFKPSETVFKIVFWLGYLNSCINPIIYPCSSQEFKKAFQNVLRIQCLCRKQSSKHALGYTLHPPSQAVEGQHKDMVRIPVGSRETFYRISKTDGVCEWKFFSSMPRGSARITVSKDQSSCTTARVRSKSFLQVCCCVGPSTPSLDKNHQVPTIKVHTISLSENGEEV

[3] = molecular target: T3, Alpha-1D adrenergic receptor (Homo sapiens, UniProt P25100); test: Ability to displace beta ([125I]-iodo-4-hydroxyphenyl) ethylamino methyl tetralone from human cloned Alpha-1d adrenergic receptor stably expressed in HEK cells.; type: cell-based, HEK293
T3 sequence (P25100 whole entry): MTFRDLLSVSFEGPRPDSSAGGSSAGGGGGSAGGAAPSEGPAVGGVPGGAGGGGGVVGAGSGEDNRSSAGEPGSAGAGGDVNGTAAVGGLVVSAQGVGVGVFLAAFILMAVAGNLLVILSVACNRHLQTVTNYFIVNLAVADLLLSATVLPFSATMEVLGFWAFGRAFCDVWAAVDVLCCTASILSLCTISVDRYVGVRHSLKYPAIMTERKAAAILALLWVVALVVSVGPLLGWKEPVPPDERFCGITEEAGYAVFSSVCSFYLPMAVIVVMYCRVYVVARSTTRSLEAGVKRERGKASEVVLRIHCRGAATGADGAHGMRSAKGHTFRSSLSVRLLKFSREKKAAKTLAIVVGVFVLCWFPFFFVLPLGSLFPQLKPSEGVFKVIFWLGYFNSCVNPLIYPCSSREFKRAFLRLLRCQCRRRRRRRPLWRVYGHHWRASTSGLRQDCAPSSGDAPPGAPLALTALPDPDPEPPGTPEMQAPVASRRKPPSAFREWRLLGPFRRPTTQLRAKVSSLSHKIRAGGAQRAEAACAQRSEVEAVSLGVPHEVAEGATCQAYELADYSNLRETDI

[4] = molecular target: T1, Alpha-1B adrenergic receptor; test: Ability to displace beta ([125I]-iodo-4-hydroxyphenyl)-ethylamino methyl tetralone from human cloned Alpha-1b adrenergic receptor stably expressed in COS-7 cells; type: cell-based
[5] = molecular target: T3, Alpha-1D adrenergic receptor; test: Ability to displace beta ([125I]-iodo-4-hydroxyphenyl)-ethylamino methyl tetralone from human cloned Alpha-1d adrenergic receptor stably expressed in COS-7 cells; type: cell-based
[6] = molecular target: T2, Alpha-1A adrenergic receptor; test: Ability to displace beta ([125I]-iodo-4-hydroxyphenyl)-ethylaminomethyl tetralone from human cloned Alpha-1a adrenergic receptor stably expressed in COS-7 cells; type: cell-based
[7] = molecular target: T2, Alpha-1A adrenergic receptor; test: Ability to displace beta ([125I]-iodo-4-hydroxyphenyl)-ethylaminomethyl tetralone from human cloned Alpha-1a adrenergic receptor stably expressed in CHO cells
[8] = molecular target: T4, Alpha adrenergic receptor (1a and 1d) (Homo sapiens) (UniProt P35348+P25100); test: Selectivity towards Alpha-1A over alpha-1d receptor; 266x; type: protein assay
[9] = molecular target: T5, Adrenergic receptors; alpha-1 A & B (Homo sapiens) (UniProt P35348+P35368); test: Selectivity towards Alpha-1A over alpha-1b receptor; 188x; type: protein assay
[10] = molecular target: T4, Alpha adrenergic receptor (1a and 1d) (Homo sapiens); test: Selectivity towards Alpha-1A over alpha1d receptor; 208x; type: protein assay
[11] = molecular target: T5, Adrenergic receptors; alpha-1 A & B (Homo sapiens); test: Selectivity towards alpha-1a over alpha-1b receptor; 97x; type: protein assay
[12] = molecular target: T2, Alpha-1A adrenergic receptor; test: Ability to displace beta ([125I]-iodo-4-hydroxyphenyl)-ethylaminomethyl tetralone from human cloned Alpha-1a adrenergic receptor stably expressed in CHO cells; type: cell-based
[13] = molecular target: T5, Adrenergic receptors; alpha-1 A & B (Homo sapiens); test: Selectivity towards Alpha-1A over alpha-1b receptor; 3.3x; type: protein assay
[14] = molecular target: T4, Alpha adrenergic receptor (1a and 1d) (Homo sapiens); test: Selectivity towards alpha-1a over alpha1d receptor; 5.5x; type: protein assay
[15] = molecular target: T5, Adrenergic receptors; alpha-1 A & B (Homo sapiens); test: Selectivity towards Alpha-1A over alpha-1b receptor; 5x; type: protein assay
[16] = molecular target: T4, Alpha adrenergic receptor (1a and 1d) (Homo sapiens); test: Selectivity towards Alpha-1A over alpha1d receptor; 11x; type: protein assay
[17] = test system: Canis familiaris; test: In vivo inhibitory activity against […]-induced increase in urethral pressure (IUP) in dog; type: functional, Canis lupus familiaris, Urethra
[18] = test system: Canis familiaris; test: In vivo inhibitory activity against […]-induced increase in diastolic blood pressure (DBP) in dog; type: functional, Canis lupus familiaris, Artery
[19] = molecular target: T2, Alpha-1A adrenergic receptor; test: Ability to displace beta ([125I]-iodo-4-hydroxyphenyl)-ethylaminomethyl tetralone from human cloned Alpha-1a adrenergic receptor stably expressed in Chinese Hamster Ovary (CHO) cells; type: cell-based
[20] = molecular target: T5, Adrenergic receptors; alpha-1 A & B (Homo sapiens); test: Selectivity towards Alpha-1A over alpha-1b receptor; 11x; type: protein assay
[21] = molecular target: T4, Alpha adrenergic receptor (1a and 1d) (Homo sapiens); test: Selectivity towards Alpha-1A over alpha-1d receptor; 56x; type: protein assay

Ki [1] [nM] | Ki [2] [nM] | Ki [3] [nM] | Structure (SMILES) | other results
1960 | 1030 | 3430 | COC(=O)c1ccc2c(c1)oc(=O)n2C1CCN(CCCCN2C(=O)c3ccccc3S2(=O)=O)CC1 | –
14 | 0.12 | 41 | O=C1c2ccccc2S(=O)(=O)N1CCCCN1CCC(n2c(=O)oc3ccccc32)CC1 | –
– | – | – | CS(=O)(=O)c1ccc2c(c1)S(=O)(=O)N(CCCCN1CCC(n3c(=O)oc4ccccc43)CC1)C2=O | Ki [4]: 6.8 nM; Ki [5]: 210 nM; Ki [6]: 2.4 nM
50 | – | 71 | O=C1c2cc(F)ccc2S(=O)(=O)N1CCCCN1CCC(n2c(=O)oc3ccccc32)CC1 | Ki [7]: 0.27 nM; Selectivity [8]: 266; Selectivity [9]: 188
676 | 90 | 894 | O=C1c2ccccc2S(=O)(=O)N1CCCCN1CCC(n2c(=O)oc3cc4c(cc32)CCCC4)CC1 | –
1150 | 147 | 1020 | Cc1cccc2oc(=O)n(C3CCN(CCCCN4C(=O)c5ccccc5S4(=O)=O)CC3)c12 | –
301 | 3.1 | 644 | Cc1ccc2c(c1)oc(=O)n2C1CCN(CCCCN2C(=O)c3ccccc3S2(=O)=O)CC1 | Selectivity [10]: 208; Selectivity [11]: 97
37 | 1.2 | 136 | Cc1ccc2oc(=O)n(C3CCN(CCCCN4C(=O)c5ccccc5S4(=O)=O)CC3)c2c1 | –
75 | – | 75 | O=C1c2ccc([N+](=O)[O-])cc2S(=O)(=O)N1CCCCN1CCC(n2c(=O)oc3ccccc32)CC1 | Ki [12]: 0.16 nM
1650 | 499 | 2750 | COc1ccc2c(c1)oc(=O)n2C1CCN(CCCCN2C(=O)c3ccccc3S2(=O)=O)CC1 | Selectivity [13]: 3.3; Selectivity [14]: 5.5
108 | 20 | 224 | Cc1cc(C)c2oc(=O)n(C3CCN(CCCCN4C(=O)c5ccccc5S4(=O)=O)CC3)c2c1 | Selectivity [15]: 5; Selectivity [16]: 11
7.3 | 0.084 | 25 | O=C1c2ccccc2S(=O)(=O)N1CCCCN1CCC(n2c(=O)oc3cc(F)ccc32)CC1 | –
– | – | 85 | O=C1c2cc(Cl)ccc2S(=O)(=O)N1CCCCN1CCC(n2c(=O)oc3ccccc32)CC1 | Kb [17]: 5.5 µg/kg; Kb [18]: 156 µg/kg
10 | – | 59 | CSc1ccc2c(c1)C(=O)N(CCCCN1CCC(n3c(=O)oc4ccccc43)CC1)S2(=O)=O | Ki [12]: 0.057 nM
– | – | – | COc1cc2nc(N3CCN(C(=O)C4CCCO4)CC3)nc(N)c2cc1OC (stereo unspecified) [TERAZOSIN] | Kb [17]: 16 µg/kg; Kb [18]: 17 µg/kg
133 | 0.13 | 351 | O=C1c2cc([N+](=O)[O-])ccc2S(=O)(=O)N1CCCCN1CCC(n2c(=O)oc3ccccc32)CC1 | –
15 | – | 76 | COc1ccc2c(c1)C(=O)N(CCCCN1CCC(n3c(=O)oc4ccccc43)CC1)S2(=O)=O | Ki [19]: 0.064 nM
20 | – | 73 | Cc1ccc2c(c1)C(=O)N(CCCCN1CCC(n3c(=O)oc4ccccc43)CC1)S2(=O)=O | Ki [19]: 0.099 nM
– | – | – | O=C1c2ccccc2C(=O)N1CCCCN1CCC(n2c(O)nc3ccccc32)CC1 | Selectivity [20]: 11; Selectivity [21]: 56

Structure (SMILES) | Ki [1] [nM] | Ki [2] [nM] | Ki [3] [nM] | other results
O=C1c2ccccc2C(=O)N1CCCCN1CCC(n2c(=O)[nH]c3ccccc32)CC1 | 3 | 0.28 | 16 | –
